Laboratory results reported in patent US20060069132A1, “Azolecarboxamide herbicides” (priority 2004, published 2006).

What was measured:
[1] = system: wheat; test: Test B postemergence herbicide test; type: in vivo, Triticum aestivum; parameters: key to Wheat plant response rating: 0 = no effect, 100 = complete control; details: scale 0 (no effect) to 100 (complete control)
Method in brief: (§1)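 Greenhouse test; postemergence application to plants at 1–4 leaves (2–18 cm); paddy species at 2 leaves; evaluated visually vs controls at 13–15 days; scale 0–100 (100 = complete control).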

[2] = system: giant foxtail; test: Test A pre-/postemergence herbicide test; type: in vivo, Setaria faberi
Method in brief: (§2)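 Sandy loam soil given preemergence directed spray; plants at 2 to 10 cm, one- to two-leaf stage, sprayed to runoff postemergence, compounds in non-phytotoxic solvent with surfactant. Injury rated visually versus untreated controls after about ten greenhouse days, 0 (no effect) to 100 (complete control); dash means not tested.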

[3] = system: large crabgrass; test: Test A pre-/postemergence herbicide test; type: in vivo, Digitaria sanguinalis
Method in brief: as §2

[4] = system: corn; test: Test B pre-/postemergence herbicide test; type: in vivo, Zea mays
Method in brief: (§3)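 Formulation: non-phytotoxic solvent mix with surfactant. Timing: preemergence on seed and postemergence on 2–18 cm plants, applied concurrently. Readout after 13–15 d greenhouse: visual 0–100 control rating against controls.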

[5] = system: rice; test: Test B flooded paddy test; type: in vivo, Oryza sativa; details: 1000 g ai/ha, visual rating, scale 0 to 100 (0 no effect, 100 complete control), 13 to 15 days
Method in brief: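 Scale 0–100: zero equals no visible effect, 100 complete control, judged by eye relative to controls. Timing: 13 to 15 days in greenhouse post-treatment. Growth stage at spraying: two leaves (paddy) or one to four leaves, 2–18 cm (postemergence).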

[6] = system: Surinam grass; test: Test B pre-/postemergence herbicide test; type: in vivo, Urochloa decumbens
Method in brief: as §3

[7] = system: small flower umbrella sedge; test: Test B flooded paddy test; type: in vivo, Cyperus difformis; details: 1000 g ai/ha, visual rating, scale 0 to 100 (0 no effect, 100 complete control), 13 to 15 days
Method in brief: (§4)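 Each value is a visual 0–100 response rating taken against controls 13 to 15 days after treatment in the greenhouse. Plants received formulated chemical postemergence at the 1- to 4-leaf stage or, in flooded paddy, at the 2-leaf stage.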

[8] = system: lambsquarters; test: Test B pre-/postemergence herbicide test; type: in vivo, Chenopodium album
Method in brief: as §3

[9] = system: cocklebur; test: Test B pre-/postemergence herbicide test; type: in vivo, Xanthium strumarium
Method in brief: (§5)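 Evaluation is visual, comparing treated with control plants on a scale where 0 means no effect and 100 means full control. Treatments were preemergence, or postemergence on seedlings 2–18 cm tall, and held 13–15 days in the greenhouse.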

[10] = system: rice; test: Test B pre-/postemergence herbicide test; type: in vivo, Oryza sativa; details: preemergence
Method in brief: as §3

[11] = system: wild oat; test: Test B postemergence herbicide test; type: in vivo, Avena fatua; details: scale 0 (no effect) to 100 (complete control)
Method in brief: as §1

[12] = system: ducksalad; test: Test B flooded paddy test; type: in vivo, Heteranthera limosa; details: 1000 g ai/ha, visual rating, scale 0 to 100 (0 no effect, 100 complete control), 13 to 15 days
Method in brief: as §4

[13] = system: velvetleaf; test: Test B pre-/postemergence herbicide test; type: in vivo, Abutilon theophrasti
Method in brief: as §3

[14] = system: velvetleaf; test: Test A pre-/postemergence herbicide test; type: in vivo, Abutilon theophrasti
Method in brief: as §2

[15] = system: blackgrass; test: Test B postemergence herbicide test; type: in vivo, Alopecurus myosuroides; details: scale 0 (no effect) to 100 (complete control)
Method in brief: as §4

[16] = system: barnyardgrass; test: Test B flooded paddy test; type: in vivo, Echinochloa crus-galli; details: 1000 g ai/ha, visual rating, scale 0 to 100 (0 no effect, 100 complete control), 13 to 15 days
Method in brief: as §4

[17] = system: large crabgrass; test: Test B pre-/postemergence herbicide test; type: in vivo, Digitaria sanguinalis
Method in brief: as §3

[18] = system: barnyardgrass; test: Test B pre-/postemergence herbicide test; type: in vivo, Echinochloa crus-galli
Method in brief: as §5

[19] = system: pigweed; test: Test B pre-/postemergence herbicide test; type: in vivo, Amaranthus retroflexus
Method in brief: as §3

[20] = system: redroot pigweed; test: Test A pre-/postemergence herbicide test; type: in vivo, Amaranthus retroflexus
Method in brief: as §2

[21] = system: barnyardgrass; test: Test A pre-/postemergence herbicide test; type: in vivo, Echinochloa crus-galli
Method in brief: as §2

[22] = system: morningglory; test: Test A pre-/postemergence herbicide test; type: in vivo, Ipomoea spp.
Method in brief: as §2

[23] = system: giant foxtail; test: Test B pre-/postemergence herbicide test; type: in vivo, Setaria faberi
Method in brief: as §3

[24] = system: morningglory; test: Test B pre-/postemergence herbicide test; type: in vivo, Ipomoea coccinea
Method in brief: as §5

[25] = Postemergence, 500 g ai/ha, visual rating after 13 to 15 days
[26] = postemergence, 125 g ai/ha, visual rating
[27] = Postemergence, 500 g ai/ha, 0 to 100 scale, 0 no effect, 100 complete control
[28] = Postemergence, 2000 g ai/ha, 0 to 100 scale, 0 no effect, 100 complete control
[29] = Preemergence, 500 g ai/ha, visual rating, 0 to 100 scale (0 no effect, 100 complete control)
[30] = Preemergence, 2000 g ai/ha, 0 to 100 scale, 0 no effect, 100 complete control
[31] = 500 g ai/ha, visual rating 0-100, 0 no effect, 100 complete control, preemergence
[32] = Postemergence, 500 g ai/ha, visual rating after 13 to 15 days, scale 0 (no effect) to 100 (complete control)
[33] = postemergence, 125 g ai/ha, visual rating, scale 0 (no effect) to 100 (complete control)
[34] = preemergence, 125 g ai/ha, 0 to 100 scale, 0 is no effect, 100 is complete control

SMILES: C=CCOC(=O)c1cccc(NC(=O)c2cc(C(C)(C)C)nn2CC)c1C [Compound 94]
- Plant response rating, Wheat [1, 25]: 10
- Wheat plant response rating [1, 26]: 0
- Foxtail, Giant plant response rating [2, 27]: 10
- Plant response rating, Foxtail, Giant [2, 28]: 15
- Foxtail, Giant plant response rating [2, 29]: 45
- Foxtail, Giant plant response rating [2, 30]: 65
- Crabgrass, Large plant response rating [3, 27]: 10
- Plant response rating, Crabgrass, Large [3, 28]: 30
- Crabgrass, Large plant response rating [3, 29]: 35
- Crabgrass, Large plant response rating [3, 30]: 60
- Plant response rating, Corn [4, 31]: 0
- Plant response rating, Corn [4, 32]: 20
- Corn plant response rating [4, 33]: 20
- Plant response rating, Corn [4, 34]: 0
- Rice plant response rating [5]: 10
- Plant response rating, Surinam Grass [6, 31]: 0
- Plant response rating, Surinam Grass [6, 32]: 10
- Surinam Grass plant response rating [6, 33]: 10
- Plant response rating, Surinam Grass [6, 34]: 0
- Sedge, Umbrella plant response rating [7]: 50
- Plant response rating, Lambsquarters [8, 31]: 0
- Plant response rating, Lambsquarters [8, 32]: 80
- Lambsquarters plant response rating [8, 33]: 50
- Plant response rating, Lambsquarters [8, 34]: 0
- Plant response rating, Cocklebur [9, 31]: 0
- Plant response rating, Cocklebur [9, 32]: 50
- Cocklebur plant response rating [9, 33]: 20
- Plant response rating, Cocklebur [9, 34]: 0
- Plant response rating, Rice ([10]; 500 g ai/ha, visual rating 0-100, 0 no effect, 100 complete control): 0
- Plant response rating, Rice ([10]; 125 g ai/ha, 0 to 100 scale, 0 is no effect, 100 is complete control): 0
- Plant response rating, Oat, Wild [11, 25]: 10
- Oat, Wild plant response rating [11, 26]: 10
- Ducksalad plant response rating [12]: 30
- Plant response rating, Velvetleaf [13, 31]: 0
- Plant response rating, Velvetleaf [13, 32]: 20
- Velvetleaf plant response rating [13, 33]: 10
- Plant response rating, Velvetleaf [13, 34]: 0
- Velvetleaf plant response rating [14, 27]: 20
- Plant response rating, Velvetleaf [14, 28]: 25
- Velvetleaf plant response rating [14, 29]: 5
- Velvetleaf plant response rating ([14]; Preemergence, 2000 g ai/ha, visual rating, 0 to 100 scale (0 no effect, 100 complete control)): 25
- Plant response rating, Blackgrass [15, 25]: 10
- Blackgrass plant response rating [15, 26]: 0
- Barnyardgrass plant response rating [16]: 20
- Plant response rating, Crabgrass, Large [17, 31]: 20
- Plant response rating, Crabgrass, Large [17, 32]: 10
- Crabgrass, Large plant response rating [17, 33]: 10
- Plant response rating, Crabgrass, Large [17, 34]: 10
- Plant response rating, Barnyardgrass [18, 31]: 20
- Plant response rating, Barnyardgrass [18, 32]: 10
- Barnyardgrass plant response rating [18, 33]: 10
- Plant response rating, Barnyardgrass [18, 34]: 10
- Plant response rating, Pigweed [19, 31]: 20
- Plant response rating, Pigweed [19, 32]: 30
- Pigweed plant response rating [19, 33]: 10
- Plant response rating, Pigweed [19, 34]: 0
- Pigweed plant response rating [20, 27]: 25
- Plant response rating, Pigweed [20, 28]: 30
- Pigweed plant response rating [20, 29]: 35
- Pigweed plant response rating [20, 30]: 85
- Barnyardgrass plant response rating [21, 27]: 20
- Plant response rating, Barnyardgrass [21, 28]: 35
- Barnyardgrass plant response rating [21, 29]: 20
- Barnyardgrass plant response rating [21, 30]: 65
- Morningglory plant response rating [22, 27]: 20
- Plant response rating, Morningglory [22, 28]: 20
- Morningglory plant response rating [22, 29]: 10
- Morningglory plant response rating [22, 30]: 10
- Plant response rating, Foxtail, Giant [23, 31]: 30
- Plant response rating, Foxtail, Giant [23, 32]: 10
- Foxtail, Giant plant response rating [23, 33]: 10
- Plant response rating, Foxtail, Giant [23, 34]: 10
- Plant response rating, Morningglory [24, 31]: 0
- Plant response rating, Morningglory [24, 32]: 10
- Morningglory plant response rating [24, 33]: 10
- Plant response rating, Morningglory [24, 34]: 0
